Source: patent US20050209104A1, “Dinoflagellate karlotoxins, methods of isolation and uses thereof” (priority 2002, published 2005)

System: rainbow trout erythrocytes
Assay: Membrane lipid inhibition assay of KmTx 2 hemolytic activity
Assay type: cell-based
Conditions: for inhibition of the hemolytic activity of KmTx 2 by co-incubation: 0.001-10 μM sterol or lipid, KmTx 2 0.1, 0.5, 1 μg/ml
Procedure: To assess the inhibitory effects of exogenous membrane lipids on KmTx 2 hemolytic activity, the following sterols and lipids were tested: cholesterol, ergosterol, gymnodinosterol, and both natural and synthetic phosphatidylcholine. Cholesterol (5-cholesten-3β-ol) and L-α-phosphatidylcholine (brain, porcine) were purchased from Avanti Polar Lipids Inc. (Alabaster, Ala.); ergosterol (5,7,22-cholestatrien-24β-methyl-3β-ol) was purchased from Steraloids, Inc. (Newport, R.I.). Synthetic phosphatidylcholine (L-α-lecithin (β-γ-dipalmitoyl) was purchased from Calbiochem (San Diego, Calif.), Gymnodinosterol was isolated from filtered K. micrum (CCMP 2282) cells (isolation described in supplemental materials). KmTx 2: 0, 0.1, 0.5, and 1 μg/ml was added to solutions of Tris buffer +CaCl2 with either: 0, 0.001, 0.01, 0.1, 1 or 10 μM selected sterol or membrane lipid. Stock solutions of toxin and lipid were made in methanol and no more than 1% of each (2% total) was added to any given well. After brief mixing, these solutions were added 1: 1 with a diluted suspension of rainbow trout erythrocytes and hemolytic activity was assessed as described in supplemental materials.

Row | Compound | inhibition of the hemolytic activity of KmTx 2 by co-incubation | concentration at which complete inhibition was reached (co-incubation with KmTx 2) | concentration at which inhibition plateaued (co-incubation with KmTx 2)
1 | CC(C)CCC[C@@H](C)[C@H]1CC[C@H]2[C@@H]3CC=C4C[C@@H](O)CC[C@]4(C)[C@H]3CC[C@]12C [cholesterol, 5-cholesten-3β-ol] | inhibited | ca. 10 μM | 
2 | CC(C)[C@@H](C)/C=C/[C@@H](C)[C@H]1CC[C@H]2C3=CC=C4C[C@@H](O)CC[C@]4(C)[C@H]3CC[C@]12C [ergosterol, 5,7,22-cholestatrien-24β-methyl-3β-ol] | inhibited |  | ca. 1 μM
3 | L-α-phosphatidylcholine (brain, porcine) [natural brain phosphotidylcholine] | no inhibition |  | 
4 | CC(C)[C@H](C)C=C[C@@H](C)[C@H]1CCC2=C3CC[C@H]4[C@H](C)[C@@H](O)CC[C@]4(C)[C@H]3CC[C@@]21C [gymnodinosterol, (24S)-4α-methyl-5α-ergosta-8(14),22-dien-3β-ol] | not inhibited |  | 
5 | CCCCCCCCCCCCCCCC(=O)OC[C@H](COP(=O)([O-])OCC[N+](C)(C)C)OC(=O)CCCCCCCCCCCCCCC [synthetic dipalmitoyl (16:0), L-α-lecithin (β-γ-dipalmitoyl)] | no inhibition |  | 
